Data taken from US11673891B2, “Imidazopyrimidine compounds and uses thereof” (Dana-Farber Cancer Institute, Inc., priority 2017, dated 2023).

Test system: human adult PBMCs
Experiment: TNF production by ELISA after stimulation of human adult PBMCs
Type: cell-based
Details: adult PBMCs, 33 μM, 18 hours, ELISA; median, N=3-5; unit not given (FIG. 6B/7B legends: TNF concentration in ng/ml)
Description: Table 1. Activity of Exemplary Imidazopyrimidine Compounds on Stimulating TNF Production in PBMCs as Compared to Compound R848 Table 1 provides the activity of exemplary compounds on stimulating TNF production in PBMCs as compared to the benchmark compound R848. Specifically, TNF production was measured by ELISA after stimulation of adult PBMCs with compound 037 analog family or the compound R848 at 33 μM for 18 hours. Analogs are ranked top to bottom by median percentage TNF production (TNF %) as compared to R848 (N=3-5). The compounds have been classified in the following categories according to TNF %: high activity—class A: TNF %>15%; medium activity—class B: 1%<TNF %≤15%; low activity—class C: TNF %≤1%.
ELISAs and Multiplex-Analyte Assays. Supernatants derived from human PBMCs and DC stimulations were assayed by ELISA for TNF (ThermoFisher Scientific; Waltham, Mass., USA). Cytokine and chemokine expression profiles (e.g., IFNγ, IL-9, IL-10, IL-12 (p70), IL-13, IL-1β, IL-23, IL-27, IL-28A, IL-33, IL-6, MIP-3α/CCL20, and TNF) in cell culture supernatants were measured using a customized Milliplex® Human Th17 Magnetic Bead Panel according to the manufacturer's instructions (Millipore, Chicago, Ill., USA). Assays were read and analyzed on the Luminex® 100/200™ System and xPOTENT® software (Luminex, Austin, Tex.). A minimum threshold was set at the minimum detectable concentration for each individual assay, defined as three standard deviations above the mean background.
PBMCs were isolated from blood using a Ficoll density gradient. PBMCs either used fresh or were stored at 5×10^7 cells per vial in 1 mL RPMI containing 20% autologous plasma and 10% DMSO at −80° C. until use. Stimulation plates were prepared by transferring 0.66 μl of DMSO-dissolved compounds (10 mM) to each well of a round bottom 96-well plate. PBMCs isolated from human adult donors were resuspended at a concentration of 10^5 cells/200 μl of RPMI supplemented with 10% of platelet-poor plasma. 200 μl of the cell suspension were transferred to each well resulting in a final compound concentration of […]. After about 18 hours of incubation (37° C., 5% CO2), plates were spun down (500×g, room temperature, 5 minutes) and supernatants were harvested for further analysis.

Compound	TNF (Median)
Cc1cnc2nc(-c3ccc(C)c(NC(=O)Cc4ccccc4)c3)cn2c1 [FRF-02-162-1]	0.008
Cc1cnc2nc(-c3ccc(C)c(NC(=O)c4ccccc4C)c3)cn2c1 [FRF-02-162-2]	0.309
Cc1ccc(-c2cn3cc(F)cnc3n2)cc1NC(=O)c1cc(F)ccc1C(F)(F)F [FRF-02-166]	2.0745
Cc1ccc(-c2cn3cc(F)cnc3n2)cc1NC(=O)c1ccc(F)cc1C(F)(F)F [FRF-02-167]	1.101
Cc1ccc(-c2cn3cc(F)cnc3n2)cc1NC(=O)c1ccc(Cl)cc1C(F)(F)F [FRF-02-169]	0.008
Cc1ccc(C(=O)Nc2cc(-c3cn4cc(F)cnc4n3)ccc2C)c(C(F)(F)F)c1 [FRF-02-171]	2.1615
CCC(C(=O)Nc1cc(-c2cn3cc(C)cnc3n2)ccc1Cl)c1ccccc1 (stereo not drawn) [FRF-02-174-1]	0.924
Cc1cnc2nc(-c3ccc(Cl)c(NC(=O)c4ccccc4C(F)(F)F)c3)cn2c1 [FRF-02-174-2]	0.1455
Cc1ccc(-c2cn3cc(F)cnc3n2)cc1NC(=O)c1c(F)cccc1C(F)(F)F [FRF-02-175]	0.063
COc1ccc(C(=O)Nc2cc(-c3cn4cc(F)cnc4n3)ccc2C)c(C)c1 [FRF-02-176]	0.087
COc1ccc(C(=O)Nc2cc(-c3cn4cccnc4n3)ccc2C)c(C)c1 [FRF-02-182]	0.008
COc1ccc(C)c(C(=O)Nc2cc(-c3cn4cccnc4n3)ccc2C)c1 [FRF-02-183]	0.008
COc1ccc(C)c(C(=O)Nc2cc(-c3cn4cc(F)cnc4n3)ccc2C)c1 [FRF-02-187]	1.191
Cc1ccc(-c2cn3cccnc3n2)cc1NC(=O)C(CO)c1ccccc1 (stereo not drawn) [FRF-02-193]	2.997
Cc1ccc(-c2cn3cc(F)cnc3n2)cc1NC(=O)C(CO)c1ccccc1 (stereo not drawn) [FRF-02-194]	0.008
Cc1ccc(-c2cn3cc(F)cnc3n2)cc1NC(=O)C(C)c1ccccc1 (stereo not drawn) [FRF-03-081]	0.3195
Cc1ccc(-c2cn3cc(F)cnc3n2)cc1NC(=O)C(C)(C)c1ccccc1 [FRF-03-084-1]	0.24

Same assay, conditions: class according to TNF % as compared to R848; adult PBMCs, 33 μM, 18 hours

Compound	Activity class
Cc1cnc2nc(-c3ccc(C)c(NC(=O)Cc4ccccc4)c3)cn2c1 [FRF-02-162-1]	C (low activity—class C: TNF %≤1%)
Cc1cnc2nc(-c3ccc(C)c(NC(=O)c4ccccc4C)c3)cn2c1 [FRF-02-162-2]	B (medium activity—class B: 1%<TNF %≤15%)
Cc1ccc(-c2cn3cc(F)cnc3n2)cc1NC(=O)c1cc(F)ccc1C(F)(F)F [FRF-02-166]	A (high activity—class A: TNF %>15%)
Cc1ccc(-c2cn3cc(F)cnc3n2)cc1NC(=O)c1ccc(F)cc1C(F)(F)F [FRF-02-167]	A (high activity—class A: TNF %>15%)
Cc1ccc(-c2cn3cc(F)cnc3n2)cc1NC(=O)c1ccc(Cl)cc1C(F)(F)F [FRF-02-169]	C (low activity—class C: TNF %≤1%)
Cc1ccc(C(=O)Nc2cc(-c3cn4cc(F)cnc4n3)ccc2C)c(C(F)(F)F)c1 [FRF-02-171]	A (high activity—class A: TNF %>15%)
CCC(C(=O)Nc1cc(-c2cn3cc(C)cnc3n2)ccc1Cl)c1ccccc1 (stereo not drawn) [FRF-02-174-1]	A (high activity—class A: TNF %>15%)
Cc1cnc2nc(-c3ccc(Cl)c(NC(=O)c4ccccc4C(F)(F)F)c3)cn2c1 [FRF-02-174-2]	B (medium activity—class B: 1%<TNF %≤15%)
Cc1ccc(-c2cn3cc(F)cnc3n2)cc1NC(=O)c1c(F)cccc1C(F)(F)F [FRF-02-175]	B (medium activity—class B: 1%<TNF %≤15%)
COc1ccc(C(=O)Nc2cc(-c3cn4cc(F)cnc4n3)ccc2C)c(C)c1 [FRF-02-176]	B (medium activity—class B: 1%<TNF %≤15%)
COc1ccc(C(=O)Nc2cc(-c3cn4cccnc4n3)ccc2C)c(C)c1 [FRF-02-182]	C (low activity—class C: TNF %≤1%)
COc1ccc(C)c(C(=O)Nc2cc(-c3cn4cccnc4n3)ccc2C)c1 [FRF-02-183]	C (low activity—class C: TNF %≤1%)
COc1ccc(C)c(C(=O)Nc2cc(-c3cn4cc(F)cnc4n3)ccc2C)c1 [FRF-02-187]	A (high activity—class A: TNF %>15%)
Cc1ccc(-c2cn3cccnc3n2)cc1NC(=O)C(CO)c1ccccc1 (stereo not drawn) [FRF-02-193]	A (high activity—class A: TNF %>15%)
Cc1ccc(-c2cn3cc(F)cnc3n2)cc1NC(=O)C(CO)c1ccccc1 (stereo not drawn) [FRF-02-194]	C (low activity—class C: TNF %≤1%)
Cc1ccc(-c2cn3cc(F)cnc3n2)cc1NC(=O)C(C)c1ccccc1 (stereo not drawn) [FRF-03-081]	B (medium activity—class B: 1%<TNF %≤15%)
Cc1ccc(-c2cn3cc(F)cnc3n2)cc1NC(=O)C(C)(C)c1ccccc1 [FRF-03-084-1]	B (medium activity—class B: 1%<TNF %≤15%)

Same assay, conditions: median percentage TNF production as compared to R848; adult PBMCs, 33 μM, 18 hours, N=3-5

Compound	TNF % (Median)
Cc1cnc2nc(-c3ccc(C)c(NC(=O)Cc4ccccc4)c3)cn2c1 [FRF-02-162-1]	0.42%
Cc1cnc2nc(-c3ccc(C)c(NC(=O)c4ccccc4C)c3)cn2c1 [FRF-02-162-2]	6.34%
Cc1ccc(-c2cn3cc(F)cnc3n2)cc1NC(=O)c1cc(F)ccc1C(F)(F)F [FRF-02-166]	53.91%
Cc1ccc(-c2cn3cc(F)cnc3n2)cc1NC(=O)c1ccc(F)cc1C(F)(F)F [FRF-02-167]	51.62%
Cc1ccc(-c2cn3cc(F)cnc3n2)cc1NC(=O)c1ccc(Cl)cc1C(F)(F)F [FRF-02-169]	0.18%
Cc1ccc(C(=O)Nc2cc(-c3cn4cc(F)cnc4n3)ccc2C)c(C(F)(F)F)c1 [FRF-02-171]	65.93%
CCC(C(=O)Nc1cc(-c2cn3cc(C)cnc3n2)ccc1Cl)c1ccccc1 (stereo not drawn) [FRF-02-174-1]	35.71%
Cc1cnc2nc(-c3ccc(Cl)c(NC(=O)c4ccccc4C(F)(F)F)c3)cn2c1 [FRF-02-174-2]	13.99%
Cc1ccc(-c2cn3cc(F)cnc3n2)cc1NC(=O)c1c(F)cccc1C(F)(F)F [FRF-02-175]	1.43%
COc1ccc(C(=O)Nc2cc(-c3cn4cc(F)cnc4n3)ccc2C)c(C)c1 [FRF-02-176]	3.81%
COc1ccc(C(=O)Nc2cc(-c3cn4cccnc4n3)ccc2C)c(C)c1 [FRF-02-182]	0.39%
COc1ccc(C)c(C(=O)Nc2cc(-c3cn4cccnc4n3)ccc2C)c1 [FRF-02-183]	0.77%
COc1ccc(C)c(C(=O)Nc2cc(-c3cn4cc(F)cnc4n3)ccc2C)c1 [FRF-02-187]	31.32%
Cc1ccc(-c2cn3cccnc3n2)cc1NC(=O)C(CO)c1ccccc1 (stereo not drawn) [FRF-02-193]	91.73%
Cc1ccc(-c2cn3cc(F)cnc3n2)cc1NC(=O)C(CO)c1ccccc1 (stereo not drawn) [FRF-02-194]	0.18%
Cc1ccc(-c2cn3cc(F)cnc3n2)cc1NC(=O)C(C)c1ccccc1 (stereo not drawn) [FRF-03-081]	7.51%
Cc1ccc(-c2cn3cc(F)cnc3n2)cc1NC(=O)C(C)(C)c1ccccc1 [FRF-03-084-1]	6.00%
